In US20240189305A1, “THERAPEUTIC AGENT FOR CORONAVIRUS INFECTION” (FUJIFILM TOYAMA CHEMICAL CO., LTD., priority 2021, published 2024):

Tested on: SARS-CoV-2
Assay: Test example 1: placebo-controlled, stratified-randomized, multicenter, double-blind phase 3 study in COVID-19 patients with a risk factor for disease progression at an early stage after onset
Format: in vivo
Details: patients 50 years or older, onset within 72 hours; oral 1,800 mg twice/day for 1 day + 800 mg twice/day for 9 days

Q: `NC(=O)c1nc(F)cnc1O` [Compound A, 6-fluoro-3-hydroxy-2-pyrazinecarboxamide] was tested. Which “therapeutic effect by primary endpoint (proportion of patients with disease progression up to Day 28) and/or secondary endpoints versus placebo” value did it give?
A: The value was “therapeutic effect is higher in the Compound A group than in the placebo group”.
